We go through two molecules from ChEMBL document CHEMBL1201862, “PubChem BioAssay data set” (2004).

Molecules are shown by their SMILES.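 1) Cells in 96-well plates. 2) Compound, 48 h, 5 concentrations. 3) Linear interpolation between surrounding doses. 4) Unreached endpoint = highest concentration. Abbreviation: GI50, concentration required for 50% inhibition of growth.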 Activity calls are given as the source filed them. No stated cut-off is given here; in the data, active = GI50 up to about 1.1 µM and inactive = higher.

Some test systems named below: NCI-H460; M19-MEL; HCT-15; RXF 393; NCI-H23; BT-549; TK-10; IGROV-1; A498; RPMI-8226; NCI-H522; SF-268; DU-145; UACC-257; OVCAR-3; SK-OV-3; EKVX; HCT-116; SNB-19; NCI/ADR-RES.
Test in all cases: NCI tumour cell line growth inhibition, 48 h

As to `CN(C)CCNC(=O)c1cccc2nc3c4ccccc4c4ccccc4c3nc12`, the GI50 with NCI-H460 is 875 nM (active); in the assay with M19-MEL it was 1.88 µM (inactive); in the assay on HCT-15, 1.69 µM; in the assay with RXF 393 it was 2.06 µM (inactive); with NCI-H23, 1.87 µM (inactive); in the assay with BT-549, 2.65 µM (inactive). For the same molecule, the GI50 in the assay with TK-10 was 5.38 µM (inactive); with IGROV-1, 3.38 µM (inactive); with A498, 7 µM (inactive); with RPMI-8226, 1.56 µM (inactive); with NCI-H522, 2.71 µM (inactive); with SF-268 it was 0.569 µM (active). In addition, the GI50 is 1.79 µM (inactive) with DU-145; 3.86 µM (inactive) in the assay on UACC-257; 3.44 µM (inactive) in the assay on OVCAR-3; 6.52 µM (inactive) in the assay on SK-OV-3; 5.77 µM (inactive) in the assay with EKVX; 1.53 µM (inactive) in the assay on HCT-116. In the assay with SNB-19, the GI50 was 3.48 µM (inactive).

Regarding `CN(C)CCNC(=O)c1cc([N+](=O)[O-])cc2ccc(-c3ccccc3)nc12`, the GI50 was 3800 nM (inactive) with NCI-H460; 5.93 µM (inactive) in the assay on M19-MEL; 7.26 µM with HCT-15; 6.04 µM (inactive) in the assay with RXF 393; 7.67 µM (inactive) with NCI-H23; 22.2 µM (inactive) in the assay on TK-10. Besides, the GI50 in the assay on IGROV-1 was 6.92 µM (inactive); in the assay with A498 it was 3.78 µM (inactive); in the assay with RPMI-8226 it was 17.7 µM (inactive); in the assay with NCI-H522 it was 3.85 µM (inactive); in the assay with SF-268, 7.91 µM (inactive); with UACC-257 it was 5.75 µM (inactive). In addition, the GI50 in the assay with OVCAR-3 was 10.9 µM (inactive); in the assay on SK-OV-3, 9.02 µM (inactive); in the assay on NCI/ADR-RES, 2.17 µM (inactive); in the assay on EKVX, 24.7 µM (inactive); in the assay on HCT-116 it was 3.23 µM (inactive); in the assay on SNB-19, 8.02 µM (inactive).
